The source of these data is US6372278B1, “Sweetener composition” (Ajinomoto Co., Inc., priority 1998, dated 2002).

Peptide text beside a SMILES is read from it.

Data set [1] in a line: Dissolution time in water, elution tester (Japanese Pharmacopoeia paddle method). Format: physicochemical. Here is the method:
(Dissolution rate of raw (original) powders each from NM C-type crystals and APM, and a mixture thereof) A predetermined amount of the sample was introduced into 900 ml water (20° C.) in a 1-L elution tester (the Japanese Pharmacopoeia, Paddle method, 100 rpm) and its dissolution time was measured (end point was visually confirmed).
Specifically, 1 g of sample taken from each mixture consisting of NM C-type crystal raw powder (average particle size of about 100 μm) and APM raw powder (average particle size of about 15 μm, IB-type bundled crystals) at the predetermined various ratios (APM content (% by weight)) shown in Table 1 below, was weighed, and then measured for its dissolution time. For comparison, 1.00 g, 0.90 g, 0.50 g, 0.10 g, 0.03 g, and 0.005 g samples were taken from said NM raw powder, and then their dissolution times were determined in the same manner as above. For the same purpose, 1.00 g, 0.97 g, 0.90 g, 0.50 g, and 0.10 g samples were taken from said APM raw powder, and then their dissolution times were determined in the same manner. […]

For data set [2] the following is noted: in terms of weight ratio; cited from earlier work.
[3] abbreviates: 0.10 g sample alone in 900 ml water, 20° C., paddle 100 rpm.
[4] abbreviates: 0.50 g sample alone in 900 ml water, 20° C., paddle 100 rpm.
The mark [5] stands for this setting: 0.90 g sample alone in 900 ml water, 20° C., paddle 100 rpm.
Where [6] appears, read: 1.00 g sample alone in 900 ml water, 20° C., paddle 100 rpm, end point visual.
The mark [7] stands for this setting: 0.03 g sample alone in 900 ml water, 20° C., paddle 100 rpm.
Where [8] appears, read: 0.51 g of NM alone (same sweetness as 1 g mixture containing 50% APM).

`COC(=O)[C@H](Cc1ccccc1)NC(=O)[C@@H](N)CC(=O)O` [APM, Aspartame] (H-Asp-Phe-OMe): the Dissolution time in data set [1] (setting [3]) worked out at 10 min; in data set [1] (setting [4]), 20 min; in data set [1] (setting [5]), 27 min; in data set [1] (0.97 g sample alone in 900 ml water, 20° C., paddle 100 rpm), 29 min; in data set [1] (setting [6]) it was 30 min. For the same compound, the sweetness strength entry in data set [2] is “about 200 times that of sucrose”.
In the case of `COC(=O)[C@H](Cc1ccccc1)NC(=O)[C@H](CC(=O)O)NCCC(C)(C)C` [NM A-type crystals, N-{N-(3,3-dimethylbutyl)-L-α-aspartyl}-L-phenylalanine 1-methyl ester], the Dissolution time is 10 min in data set [1] (setting [7]); 16 min in data set [1] (setting [3]); 35 min in data set [1] (setting [4]); “about 35 minutes” in data set [1] (setting [8]); 40 min in data set [1] (setting [5]); 42 min in data set [1] (setting [6]).
With `COC(=O)[C@H](Cc1ccccc1)NC(=O)[C@H](CC(=O)O)NCCC(C)(C)C` [NM C-type crystals, N-{N-(3,3-dimethylbutyl)-L-α-aspartyl}-L-phenylalanine 1-methyl ester], the Dissolution time was 4 min in data set [1] (0.005 g sample alone in 900 ml water, 20° C., paddle 100 rpm); 30 min in data set [1] (setting [7]); 40 min in data set [1] (setting [3]); 55 min in data set [1] (0.5 g alone, 900 ml water, 20° C.); 55 min in data set [1] (setting [4]); “about 55 minutes” in data set [1] (setting [8]). The figures for the Dissolution time in data set [1] (setting [5]) and in data set [1] (setting [6]) were 60 min and 62 min, respectively.
As for `COC(=O)[C@H](Cc1ccccc1)NC(=O)[C@H](CC(=O)O)NCCC(C)(C)C` [NM], the sweetness strength entry in data set [2] is listed as “about 10,000 times that of sucrose”.
